# Assay results from patent US9873690B2, “3-indol substituted derivatives, pharmaceutical compositions and methods for use” (Pfizer Inc., priority 2015, dated 2018).
# Biological target: T1, hTDO2 (Homo sapiens, UniProt P48775)
# T1 construct: endogenous in cells; host or cells: A172 human brain glioblastoma cells (ATCC CRL-1620)
# Assay: Cellular assay for TDO2 activity determination in A172 cells
# Type: cell-based
# Settings: human glioblastoma A172 cells naturally expressing hTDO2; overnight incubation; kynurenine by absorbance at 480 nm
# Summary of the method: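 A172 glioblastoma cells endogenously expressing hTDO2, 1.25×10^4 cells/well, incubated overnight at 37 °C, 5% CO2 in IMDM with 2% FBS and ten compound concentrations. Supernatant kynurenine measured after TCA treatment and Ehrlich's reagent (4-dimethylaminobenzaldehyde) by absorbance at 480 nm against a kynurenine standard curve, then curve-fitted.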
# T1 sequence (P48775 whole entry): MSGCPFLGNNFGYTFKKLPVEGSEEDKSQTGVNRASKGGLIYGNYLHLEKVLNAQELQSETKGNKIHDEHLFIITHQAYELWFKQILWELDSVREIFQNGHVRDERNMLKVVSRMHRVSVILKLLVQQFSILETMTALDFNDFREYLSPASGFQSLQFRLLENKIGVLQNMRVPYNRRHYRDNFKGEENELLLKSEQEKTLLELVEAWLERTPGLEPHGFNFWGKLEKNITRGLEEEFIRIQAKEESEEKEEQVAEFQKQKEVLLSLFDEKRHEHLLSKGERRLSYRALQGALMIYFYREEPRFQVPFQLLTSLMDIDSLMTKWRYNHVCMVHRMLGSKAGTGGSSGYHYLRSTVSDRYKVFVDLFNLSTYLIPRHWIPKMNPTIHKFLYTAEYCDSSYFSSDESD
row,SMILES,IC50
1,"COC(=O)NCC1NS(=O)(=O)c2ccc(-c3c[nH]c4cc(F)ccc34)cc21 (single isomer, unassigned; (-)) [Example 21, (−)-methyl ((5-(6-fluoro-1H-indol-3-yl)-1,1-dioxido-2,3-dihydrobenzo[d]isothiazol-3-yl)methyl)carbamate]",156 nM
2,"CC(=O)NCC1NS(=O)(=O)c2ccc(-c3c[nH]c4cc(F)ccc34)cc21 (single isomer, unassigned; (-)) [Example 23, (−)-N-((5-(6-fluoro-1H-indol-3-yl)-1,1-dioxido-2,3-dihydrobenzo[d]isothiazol-3-yl)methyl)acetamide]",1020 nM
3,"CN(C)CC1NS(=O)(=O)c2ccc(-c3c[nH]c4cc(F)ccc34)cc21 (single isomer, unassigned; (-)) [Example 25, (−)-3-((dimethylamino)methyl)-5-(6-fluoro-1H-indol-3-yl)-2,3-dihydrobenzo[d]isothiazole 1,1-dioxide]",4980 nM
4,"CC(=O)N(C)CC1NS(=O)(=O)c2ccc(-c3c[nH]c4cc(F)ccc34)cc21 (single isomer, unassigned; (-)) [Example 28, (−)-N-((5-(6-fluoro-1H-indol-3-yl)-1,1-dioxido-2,3-dihydrobenzo[d]isothiazol-3-yl)methyl)-N-methylacetamide]",505 nM
5,"O=S1(=O)NC(CCO)c2cc(-c3c[nH]c4cc(F)ccc34)ccc21 (single isomer, unassigned; (-)) [Example 29, (−)-5-(6-fluoro-1H-indol-3-yl)-3-(2-hydroxyethyl)-2,3-dihydrobenzo[d]isothiazole 1,1-dioxide]",126 nM
6,"CNC(=O)CCN1C(C)c2cc(-c3c[nH]c4cc(F)ccc34)ccc2S1(=O)=O (single isomer, unassigned; (-)) [Example 46, (−)-3-(5-(6-fluoro-1H-indol-3-yl)-3-methyl-1,1-dioxidobenzo[d]isothiazol-2(3H)-yl)-N-methylpropanamide]",328 nM
7,"CC1c2cc(-c3c[nH]c4cc(F)ccc34)ccc2S(=O)(=O)N1CCC(N)=O (single isomer, unassigned; (-)) [Example 48, (−)-3-(5-(6-fluoro-1H-indol-3-yl)-3-methyl-1,1-dioxidobenzo[d]isothiazol-2(3H)-yl)propanamide]",77 nM
8,"CC1c2cc(-c3c[nH]c4cc(F)ccc34)ccc2S(=O)(=O)N1CCC(=O)N1CCNCC1 (single isomer, unassigned; (-)) [Example 50, (−)3-(5-(6-fluoro-1H-indol-3-yl)-3-methyl-1,1-dioxidobenzo[d]isothiazol-2(3H)-yl)-1-(piperazin-1-yl)propan-1-one]",336 nM
9,"CC1c2cc(-c3c[nH]c4cc(F)ccc34)ccc2S(=O)(=O)N1C1CCNCC1 (single isomer, unassigned; (-)) [Example 51, (−)-5-(6-fluoro-1H-indol-3-yl)-3-methyl-2-(piperidin-4-yl)-2,3-dihydrobenzo[d]isothiazole 1,1-dioxide]",186 nM
10,"CC1c2cc(-c3c[nH]c4cc(F)ccc34)ccc2S(=O)(=O)N1CCS(C)(=O)=O (single isomer, unassigned; (-)) [Example 54, (−)-5-(6-fluoro-1H-indol-3-yl)-3-methyl-2-(2-(methylsulfonyl)ethyl)-2,3-dihydrobenzo[d]isothiazole 1,1-dioxide]",233 nM
11,"CC1c2cc(-c3c[nH]c4cc(F)ccc34)ccc2S(=O)(=O)N1CC[S+](C)[O-] (single isomer, unassigned; (-)) [Example 56, (−)-5-(6-fluoro-1H-indol-3-yl)-3-methyl-2-(2-(methylsulfinyl)ethyl)-2,3-dihydrobenzo[d]isothiazole 1,1-dioxide]",306 nM
12,"CC1c2cc(-c3c[nH]c4cc(F)ccc34)ccc2S(=O)(=O)N1CC[S+](C)[O-] (single isomer, unassigned; (-)) [Example 57, (−)-5-(6-fluoro-1H-indol-3-yl)-3-methyl-2-(2-(methylsulfinyl)ethyl)-2,3-dihydrobenzo[d]isothiazole 1,1-dioxide]",61 nM
13,"CNS(=O)(=O)CCN1C(C)c2cc(-c3c[nH]c4cc(F)ccc34)ccc2S1(=O)=O (single isomer, unassigned; (-)) [Example 59, (−)-2-(5-(6-fluoro-1H-indol-3-yl)-3-methyl-1,1-dioxidobenzo[d]isothiazol-2(3H)-yl)-N-methylethane-1-sulfonamide]",425 nM
14,"CC1c2cc(-c3c[nH]c4cc(F)ccc34)ccc2S(=O)(=O)N1CCS(N)(=O)=O (single isomer, unassigned; (-)) [Example 62, (−)-2-(5-(6-fluoro-1H-indol-3-yl)-3-methyl-1,1-dioxidobenzo[d]-isothiazol-2(3H)-yl)ethane-1-sulfonamide]",67 nM
15,"CC1c2cc(-c3c[nH]c4cc(F)ccc34)ccc2S(=O)(=O)N1CCO (single isomer, unassigned; (-)) [Example 64, (−)-5-(6-fluoro-1H-indol-3-yl)-2-(2-hydroxyethyl)-3-methyl-2,3-dihydrobenzo[d]isothiazole 1,1-dioxide]",322 nM
16,"CC1c2cc(-c3c[nH]c4cc(F)ccc34)ccc2S(=O)(=O)N1CCN1CCNCC1=O (single isomer, unassigned; (-)) [Example 65, (−)1-(2-(5-(6-fluoro-1H-indol-3-yl)-3-methyl-1,1-dioxidobenzo[d]isothiazol-2(3H)-yl)ethyl)piperazin-2-one]",546 nM
17,"Cc1cc(O)n(CCN2C(C)c3cc(-c4c[nH]c5cc(F)ccc45)ccc3S2(=O)=O)n1 (single isomer, unassigned; (-)) [Example 68, (−)-5-(6-fluoro-1H-indol-3-yl)-2-(2-(5-hydroxy-3-methyl-1H-pyrazol-1-yl)ethyl)-3-methyl-2,3-dihydrobenzo[d]isothiazole 1,1-dioxide]",3460 nM
18,"CC1c2cc(-c3c[nH]c4cc(F)ccc34)ccc2S(=O)(=O)N1CCN1CCOC1=O (single isomer, unassigned; (-)) [Example 70, (−)-3-(2-(5-(6-fluoro-1H-indol-3-yl)-3-methyl-1,1-dioxidobenzo[d]isothiazol-2(3H)-yl)ethyl)oxazolidin-2-one]",50 nM
19,"CC(=O)N1CCC(N2C(C)c3cc(-c4c[nH]c5cc(F)ccc45)ccc3S2(=O)=O)CC1 (single isomer, unassigned; (-)) [Example 72, (−)-1-(4-(5-(6-fluoro-1H-indol-3-yl)-3-methyl-1,1-dioxidobenzo[d]isothiazol-2(3H)-yl)piperidin-1-yl)ethanone]",64 nM
20,"CC(=O)N1CCC(N2C(C)c3cc(-c4c[nH]c5cc(F)ccc45)ccc3S2(=O)=O)C1 (single isomer, unassigned; (-)) [Example 75, (−)-1-(3-(5-(6-fluoro-1H-indol-3-yl)-3-methyl-1,1-dioxidobenzo[d]isothiazol-2(3H)-yl)pyrrolidin-1-yl)ethanone]",49 nM
21,"CC(=O)N1CCC(N2C(C)c3cc(-c4c[nH]c5cc(F)ccc45)ccc3S2(=O)=O)C1 (single isomer, unassigned; (-)) [Example 76, (−)-1-(3-(5-(6-fluoro-1H-indol-3-yl)-3-methyl-1,1-dioxidobenzo[d]isothiazol-2(3H)-yl)pyrrolidin-1-yl)ethanone]",61 nM
22,"CC1c2cc(-c3c[nH]c4cc(F)ccc34)ccc2S(=O)(=O)N1CC1CCNCC1 (single isomer, unassigned; (-)) [Example 77, (−) 5-(6-fluoro-1H-indol-3-yl)-3-methyl-2-(piperidin-4-ylmethyl)-2,3-dihydrobenzo[d]isothiazole 1,1-dioxide]",415 nM
23,"CC1c2cc(-c3c[nH]c4cc(F)ccc34)ccc2S(=O)(=O)N1CC1CCN(C)CC1 (single isomer, unassigned; (-)) [Example 79, (−)-5-(6-fluoro-1H-indol-3-yl)-3-methyl-2-((1-methylpiperidin-4-yl)methyl)-2,3-dihydrobenzo[d]isothiazole 1,1-dioxide]",258 nM
24,"CC1c2cc(-c3c[nH]c4cc(F)ccc34)ccc2S(=O)(=O)N1C[C@@]1(C)CCC(=O)N1 (single isomer, unassigned; (-)) [Example 83]",152 nM
25,"CC1c2cc(-c3c[nH]c4cc(F)ccc34)ccc2S(=O)(=O)N1C[C@@]1(C)CCC(=O)N1 (single isomer, unassigned; (-)) [Example 84]",389 nM
26,"CC1c2cc(-c3c[nH]c4cc(F)ccc34)ccc2S(=O)(=O)N1Cc1ncn(C)n1 (single isomer, unassigned; (-)) [Example 85, (−)-5-(6-fluoro-1H-indol-3-yl)-3-methyl-2-((1-methyl-1H-1,2,4-triazol-3-yl)methyl)-2,3-dihydrobenzo[d]isothiazole 1,1-dioxide]",57 nM
27,"CC1c2cc(-c3c[nH]c4cc(F)ccc34)ccc2S(=O)(=O)N1CC1(C)COC(=O)N1 (single isomer, unassigned; (-)) [Example 88, (−)-4-((5-(6-fluoro-1H-indol-3-yl)-3-methyl-1,1-dioxidobenzo[d]isothiazol-2(3H)-yl)methyl)-4-methyloxazolidin-2-one]",68 nM
28,"CC1c2cc(-c3c[nH]c4cc(F)ccc34)ccc2S(=O)(=O)N1C1CNC1 (single isomer, unassigned; (-)) [Example 91, (−)-2-(azetidin-3-yl)-5-(6-fluoro-1H-indol-3-yl)-3-methyl-2,3-dihydrobenzo[d]isothiazole 1,1-dioxide]",260 nM
29,"CNC(=O)C(O)CN1C(C)c2cc(-c3c[nH]c4cc(F)ccc34)ccc2S1(=O)=O (single isomer, unassigned; (-)) [Example 98, (−)-3-(5-(6-fluoro-1H-indol-3-yl)-3-methyl-1,1-dioxidobenzo[d]isothiazol-2(3H)-yl)-2-hydroxy-N-methylpropanamide]",115 nM
30,"CNC(=O)C(O)CN1C(C)c2cc(-c3c[nH]c4cc(F)ccc34)ccc2S1(=O)=O (single isomer, unassigned; (-)) [Example 100, (−)-3-(5-(6-fluoro-1H-indol-3-yl)-3-methyl-1,1-dioxidobenzo[d]isothiazol-2(3H)-yl)-2-hydroxy-N-methylpropanamide]",33 nM
